These results are taken from US11931343B2 (ARCUS BIOSCIENCES, INC., priority 2018, dated 2024).

Structures are written as SMILES.

Broadly, the IC50 is the concentration needed to halve the response being measured.

This assay has as its target T1, human CD73 (Homo sapiens, UniProt P21589).
T1 sequence (P21589 27-549): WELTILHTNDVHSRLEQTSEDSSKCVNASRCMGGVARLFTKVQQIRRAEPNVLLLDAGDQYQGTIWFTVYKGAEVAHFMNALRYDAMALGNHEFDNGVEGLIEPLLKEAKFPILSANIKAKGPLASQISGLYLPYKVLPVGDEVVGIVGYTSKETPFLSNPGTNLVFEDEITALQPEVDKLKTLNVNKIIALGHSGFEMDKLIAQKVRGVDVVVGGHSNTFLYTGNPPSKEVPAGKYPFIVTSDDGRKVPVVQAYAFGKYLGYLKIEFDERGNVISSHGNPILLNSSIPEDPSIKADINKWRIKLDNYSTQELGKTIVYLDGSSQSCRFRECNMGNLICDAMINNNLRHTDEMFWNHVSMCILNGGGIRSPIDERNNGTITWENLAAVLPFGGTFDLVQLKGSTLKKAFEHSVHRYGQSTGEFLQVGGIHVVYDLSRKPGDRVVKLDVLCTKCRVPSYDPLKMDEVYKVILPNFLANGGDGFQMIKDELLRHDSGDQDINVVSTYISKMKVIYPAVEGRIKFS
In words: Inhibition of Ecto-5′-nucleotidase (CD73) activity in CHO-CD73 cells, phosphate release from AMP. It is filed as cell-based. The following applies: CHO-K1 cells stably transfected with human CD73; 25 μM AMP; 50 minutes, 37° C.; read-out: Potency: CD73 IC50.

As for `CCc1nn(-c2ccc3cn[nH]c3c2)c2cc(-c3ccnn3Cc3ccc(C#N)cc3)cnc12` [Example 370], the IC50 was above 1 µM.
